Data from US7550467B2 (Schering Corporation, priority 2004, dated 2009).

Molecular target: T1, MCH receptor (Homo sapiens, UniProt Q99705)
T1 construct: expressed in transfected cells; host or cells: CHO cells
Test: MCH Receptor Binding Assay ([125I]-MCH, SPA beads, membranes from CHO cells expressing the MCH receptor)
Method: MCH Receptor Binding Assay:
Membranes from CHO cells expressing the MCH receptor were prepared by lysing cells with 5 mM HEPES for 15 minutes at 4° C. Cell lysates were centrifuged ([…], 15 minutes) and the pellet was resuspended in 5 mM HEPES. For each 96-well plate (Microlite, Dynex Technologies), 1 mg of cell membranes were incubated with 10 mg of wheat germ agglutinin SPA beads (Amersham) for 5 minutes at 4° C. in a volume of 10 ml of binding buffer (25 mM HEPES, 10 mM MGCl2, 10 mM NaCl, 5 mM MnCl2, 0.1% BSA). The membrane/bead mixture was centrifuged (1500×g, 3.5 min), the supernatant was aspirated, and the pellet was resuspended in 10 ml binding buffer. The centrifugation, aspiration and resuspension were then repeated. The membrane/bead mixture (100 μl) was then added to 96-well plates containing 50 μl of 500 pM [^125I]-MCH (NEN) and […] of the appropriate concentration of compound (4X the desired final concentration). Nonspecific binding was determined by including 1 μM MCH in the binding reaction. The binding reaction was incubated at room temperature for 2 hours. Plates were then analyzed in a TOPCOUNT microplate scintillation counter (Packard). Data was analyzed and Ki values were determined using GraphPad Prism.

T1 sequence (Q99705 whole entry): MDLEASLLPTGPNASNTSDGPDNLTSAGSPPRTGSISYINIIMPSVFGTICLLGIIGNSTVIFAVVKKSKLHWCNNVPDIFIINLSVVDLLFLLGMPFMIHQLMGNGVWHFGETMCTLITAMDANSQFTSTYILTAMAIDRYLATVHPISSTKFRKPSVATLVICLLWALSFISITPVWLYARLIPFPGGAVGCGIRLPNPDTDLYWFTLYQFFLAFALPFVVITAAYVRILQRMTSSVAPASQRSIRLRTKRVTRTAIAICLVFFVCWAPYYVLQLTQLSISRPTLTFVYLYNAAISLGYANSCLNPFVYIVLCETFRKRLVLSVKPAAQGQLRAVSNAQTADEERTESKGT

Structure (SMILES) | Ki (Ki rating (class)) [nM] | Ki ([125I]-MCH) [nM]
CN1CCN(CCCN(C(=O)Nc2ccc(F)c(Cl)c2)C2CCc3ccc(S(C)(=O)=O)cc3C2)CC1 (centres unmarked) | 1000 to 2000 | 
CC(=O)Nc1ccc2c(c1)CC(N(CCCN1CCN(C)CC1)C(=O)Nc1ccc(F)c(Cl)c1)CC2 (centres unmarked) [Compound I, N-(7-{3-(3-chloro-4-fluoro-phenyl)-1-[3-(4methyl-piperazin-1-yl)-propyl]-ureido}-5,6,7,8-tetrahydro-naphthalen-2yl)-acetamide] | < 1000 | 6
CN1CCN(CCCN(C(=O)Nc2ccc(F)c(Cl)c2)C2CCc3ccc(C#N)cc3C2)CC1 (centres unmarked) [Compound III, 3-(3-chloro-4-fluoro-phenyl)-1-(7-cyano-1,2,3,4-tetrahydro-naphthalen-2-yl)-1-[3-(4-methyl-piperazin-1-yl)-propyl]-urea] | < 1000 | 14
COc1ccc2c(c1)CC(N(CCCN1CCN(C)CC1)C(=O)Nc1ccc(F)c(Cl)c1)CC2 (centres unmarked) [Compound VII, 3-(3-chloro-4-fluoro-phenyl)-1-(7-methoxy-1,2,3,4-tetrahydro-naphthalen-2-yl)-1-[3-(4-methyl-piperazin-1-yl)-propyl]-urea] | < 1000 | 92
CN1CCN(CCCN(C(=O)Nc2ccc(F)c(Cl)c2)C2CCc3ccc(NS(C)(=O)=O)cc3C2)CC1 (centres unmarked) [Compound VIII, N-(7-{3-(3-chloro-4-fluoro-phenyl)-1-[3-(4-methyl-piperazin-1-yl)-propyl]-ureido}-5,6,7,8-tetrahydro-naphthalen-2-yl)-methanesulfonamide] | < 1000 | 96
C[C@@H]1CN[C@@H](C)CN1CCCN(C(=O)Nc1cc(Cl)nc(Cl)c1)C1COc2ccc(Br)cc2C1 (some centres unmarked) [Compound V] | < 1000 | 63
CN1CCN(CCCN(C(=O)Nc2cc(Cl)nc(Cl)c2)C2CCc3ccc(S(C)(=O)=O)cc3C2)CC1 (centres unmarked) [Compound XIII, 3-(2,6-dichloro-pyridin-4-yl)-1-(7-methanesulfonyl-1,2,3,4-tetrahydro-naphthalen-2-yl)-1-[3-(4-methyl-piperazin-1-yl)-propyl]-urea] | < 1000 | 
C[C@@H]1CN(CCCN(C(=O)Nc2cc(Cl)nc(Cl)c2)C2COc3ccc(Br)cc3C2)[C@@H](C)CN1 (some centres unmarked) [Compound XI] | < 1000 | 
CN1CCN(CCCN(C(=O)Nc2ccc(F)c(Cl)c2)C2CCc3ccccc3C2)CC1 (centres unmarked) [Compound XVII, 3-(3-chloro-4-fluoro-phenyl)-1-[3-(4-methyl-piperazin-1-yl)-propyl]-1-(1,2,3,4-tetrahydro-naphthalen-2-yl)-urea] | < 1000 | 
C[C@@H]1CN[C@@H](C)CN1CCCN(C(=O)Nc1ccc(F)c(Cl)c1)C1COc2ccc(Br)cc2C1 (stereo partly drawn) [Compound XVIII, (2R,5S)-1-(6-bromo-chroman-3-yl)-3-(3-chloro-4-fluoro-phenyl)-1-[3-(2,5-dimethyi-piperazin-1-yl)-propyl]-urea] | < 1000 | 
C[C@@H]1CN(C(=O)OC(C)(C)C)[C@@H](C)CN1CCCN(C(=O)Nc1cc(Cl)nc(Cl)c1)C1COc2ccc(Br)cc2C1 (some centres unmarked) [Compound XV] | < 1000 | 
COc1cc2c(cc1OC)CC(N(CCCN1CCN(C)CC1)C(=O)Nc1cc(Cl)nc(Cl)c1)CC2 (centres unmarked) [Compound XX, 3-(2,6-dichloro-pyridin-4-yl)-1-(6,7-dimethoxy-1,2,3,4-tetrahydro-naphthalen-2-yl)-1-[3-(4-methyl-piperazin-1-yl)-propyl]-urea] | < 1000 | 
CNS(=O)(=O)c1ccc2c(c1)CC(N(CCCN1CCN(C)CC1)C(=O)Nc1cc(Cl)nc(Cl)c1)CC2 (centres unmarked) [Compound XXII, 7-{3-(2,6-dichloro-pyridin-4-yl)-1-[3-(4-methyl-piperazin-1-yl)-propyl]-ureido}-5,6,7,8-tetrahydro-naphthalene-2-sulfonic acid methylamide] | < 1000 | 
C[C@@H]1CN(CCCN(C(=O)Nc2ccc(F)c(Cl)c2)C2COc3ccc(Br)cc3C2)[C@@H](C)CN1 (some centres unmarked) [Compound XXI] | < 1000 | 
C[C@@H]1CN(C(=O)OC(C)(C)C)[C@@H](C)CN1CCCN(C(=O)Nc1ccc(F)c(Cl)c1)C1COc2ccc(Br)cc2C1 (stereo partly drawn) [Compound XXV, (2S,5R)-4-{3-[1-(6-bromo-chroman-3-yl)-3-(3-chloro-4-fluoro-phenyl)-ureido]-propyl}-2,5-dimethyl-piperazine-1-carboxylic acid tert-butyl ester] | 1000 to 2000 | 
CNS(=O)(=O)c1ccc2c(c1)CC(N(CCCN1CCN(C)CC1)C(=O)Nc1ccc(F)c(C(F)(F)F)c1)CC2 (centres unmarked) [Compound XXVII, 7-{3-(4-fluoro-3-trifluoromethyl-phenyl)-1-[3-(4-methyl-piperazin-1-yl)-propyl]-ureido}-5,6,7,8-tetrahydro-naphthalene-2-sulfonic acid methylamide] | 1000 to 2000 | 
COc1cc2c(cc1OC)CC(N(CCCN1CCN(C)CC1)C(=O)Nc1ccc(F)c(Cl)c1)CC2 (centres unmarked) [Compound XXVIII, 3-(3-chloro-4-fluoro-phenyl)-1-(6,7-dimethoxy-1,2,3,4-tetrahydro-naphthalen-2-yl)-1-[3-(4-methyl-piperazin-1-yl)-propyl]-urea] | > 2000 | 
C[C@@H]1CN(CCCN(C(=O)Nc2ccc(F)c(Cl)c2)C2COc3ccc(Br)cc3C2)[C@@H](C)CN1C(=O)OC(C)(C)C (some centres unmarked) [Compound XXVI] | 1000 to 2000 | 
CN1CCN(CCCN(C(=O)Nc2ccc(F)c(C(F)(F)F)c2)C2CCc3ccc(S(=O)(=O)N(C)C)cc3C2)CC1 (centres unmarked) [Compound XXXI, 7-{3-(4-fluoro-3-trifluoromethyl-phenyl)-1-[3-(4-methyl-piperazin-1-yl)-propyl]-ureido}-5,6,7,8-tetrahydro-naphthalene-2-sulfonic acid dimethylamide] | > 2000 | 
CN1CCN(CCCN(C(=O)Nc2cc(Cl)nc(Cl)c2)C2CCc3ccc(S(=O)(=O)N(C)C)cc3C2)CC1 (centres unmarked) [Compound XXXII] | > 2000 | 
C[C@@H]1CN(CCCN(C(=O)Nc2cc(Cl)nc(Cl)c2)C2COc3ccc(Br)cc3C2)[C@@H](C)CN1C(=O)OC(C)(C)C (some centres unmarked) [XXIII] | 1000 to 2000 | 

Next, values leading:

Ki (Ki rating (class)) [nM] | Ki ([125I]-MCH) [nM] | Structure (SMILES)
< 1000 |  | CN1CCN(CCCN(C(=O)Nc2ccc(F)c(Cl)c2)C2CCc3ccc(N)cc3C2)CC1 (centres unmarked)
< 1000 | 11 | CN1CCN(CCCN(C(=O)Nc2ccc(F)c(Cl)c2)C2CCc3ccc([N+](=O)[O-])cc3C2)CC1 (centres unmarked) [Compound II, 3-(3-chloro-4-fluoro-phenyl)-1-[3-(4-methyl-piperazin-1-yl)-propyl]-1-(7-nitro-1,2,3,4-tetrahydro-naphthalen-2-yl)-urea]
< 1000 | 61 | CC(C)C(=O)Nc1ccc2c(c1)CC(N(CCCN1CCN(C)CC1)C(=O)Nc1ccc(F)c(Cl)c1)CC2 (centres unmarked) [Compound IV, N-(7-{3-(3-chloro-4-fluoro-phenyl)-1-[3-(4-methyl-piperazin-1-yl)-propyl]-ureido}-5,6,7,8-tetrahydro-naphthalen-2-yl)-isobuty ramide]
< 1000 | 157 | CCNC(=O)Nc1ccc2c(c1)CC(N(CCCN1CCN(C)CC1)C(=O)Nc1ccc(F)c(Cl)c1)CC2 (centres unmarked) [Compound IX, 1-(7-{3-(3-chloro-4-fluoro-phenyl)-1-[3-(4-methyl-piperazin-1-yl)-propyl]-ureido}-5,6,7,8-tetrahydro-naphthalen-2-yl)-3-ethyl-urea]
< 1000 | 65 | CN1CCN(CCCN(C(=O)Nc2cc(Cl)nc(Cl)c2)C2CCc3cc(C#N)ccc3C2)CC1 (centres unmarked) [Compound VI, 3-(2,6-dichloro-pyridin-4-yl)-1-(6-cyano-1,2,3,4-tetrahydro-naphthalen-2-yl)-1-[3-(4-methyl-piperazin-1-yl)-propyl]-urea]
< 1000 | 178 | CN1CCN(CCCN(C(=O)Nc2ccc(F)c(Cl)c2)C2CCc3cc(Br)ccc3C2)CC1 (centres unmarked) [Compound X, 1-(6-bromo-1,2,3,4-tetrahydro-naphthalen-2-yl)-3-(3-chloro-4-fluoro-phenyl)-1-[3-(4-methyl-piperazin-1-yl)-propyl]-urea]
< 1000 |  | COc1ccc2c(c1)CCC(N(CCCN1CCN(C)CC1)C(=O)Nc1ccc(F)c(Cl)c1)C2 (centres unmarked) [Compound XII, 3-(3-chloro-4-fluoro-phenyl)-1-(6-methoxy-1,2,3,4-tetrahydro-naphthalen-2-yl)-1-[3-(4-methyl-piperazin-1-yl)-propyl]-urea]
< 1000 |  | CN1CCN(CCCN(C(=O)Nc2ccc(F)c(Cl)c2)C2Cc3ccccc3C2)CC1 [Compound XIX, 3-(3-chloro-4-fluoro-phenyl)-1-indan-2-yl-1-[3-(4-methyl-piperazin-1-yl)-propyl]-urea]
< 1000 |  | CN1CCN(CCCN(C(=O)Nc2ccc(F)c(Cl)c2)C2CCc3cc(C#N)ccc3C2)CC1 (centres unmarked) [Compound XVI, 3-(3-chloro-4-fluoro-phenyl)-1-(6-cyano-1,2,3,4-tetrahydro-naphthalen-2-yl)-1-[3-(4-methyl-piperazin-1-yl)-propyl]-urea]
> 2000 |  | CN1CCN(CCCN(C(=O)Nc2ccc(F)c(Cl)c2)C2CCc3ccc(S(=O)(=O)N(C)C)cc3C2)CC1 (centres unmarked) [Compound XXX, 7-{3-(3-chloro-4-fluoro-phenyl)-1-[3-(4-methyl-piperazin-1-yl).-propyl]-ureido}-5,6,7,8-tetrahydro-naphthalene-2-sulfonic acid dimethylamide]
